According to US6504058B1 (priority 1997, dated 2003):
Read-outs that look alike come from different tables or passages of the source.

Assays:
[1] = tested on: Erysiphe graminis f. sp. tritici; test: Test A: wheat powdery mildew, preventive spray on wheat seedlings, disease rating; assay type: in vivo, Erysiphe graminis f. sp. tritici (on wheat seedlings); details: 200 ppm test suspension sprayed to run-off (equivalent to 500 g/ha) on wheat seedlings; 100 = 100% disease control, 0 = no control; # = significant activity
From the text: (§1) Test compounds were first dissolved in acetone in an amount equal to 3% of the final volume and then suspended at a concentration of 200 ppm in purified water containing 250 ppm of the surfactant Trem® 014 (polyhydric alcohol esters). The resulting test suspensions were then used in the following test. Spraying these 200 ppm test suspensions to the point of run-off on the test plants is the equivalent of a rate of 500 g/ha.
The test suspension was sprayed to the point of run-off on wheat seedlings. The following day the seedlings were inoculated with a spore dust of Erysiphe graminis f. sp. tritici, (the causal agent of wheat powdery mildew) and incubated in a growth chamber at 20° C. for 7 days, after which disease ratings were made.
(§2) Results for Tests A-E are given in Table A. In the table, a rating of 100 indicates 100% disease control and a rating of 0 indicates no disease control (relative to the controls). A dash (-) indicates no test results. ND indicates disease control not determined due to phytotoxicity. # indicates significant activity.

Puccinia recondita = test: Test B: wheat leaf rust, preventive spray on wheat seedlings, disease rating; assay type: in vivo, Puccinia recondita (on wheat seedlings); details: 200 ppm test suspension sprayed to run-off (equivalent to 500 g/ha) on wheat seedlings; 100 = 100% disease control, 0 = no control; # = significant activity
From the text: as §1
(§3) The test suspension was sprayed to the point of run-off on wheat seedlings. The following day the seedlings were inoculated with a spore suspension of Puccinia recondita (the causal agent of wheat leaf rust) and incubated in a saturated atmosphere at 20° C. for 24 h, and then moved to a growth chamber at 20° C. for 6 days, after which disease ratings were made.
as §2

Pyricularia oryzae = assay type: in vivo, Pyricularia oryzae (on rice seedlings); details: 100 = 100% disease control, 0 = no control, # = significant activity
Phytophthora infestans = assay type: in vivo, Phytophthora infestans (on tomato seedlings); details: 200 ppm test suspension sprayed to run-off (equivalent to 500 g/ha) on tomato seedlings; 100 = 100% disease control, 0 = no control; # = significant activity
Botrytis cinerea = test: Test E: gray mold, preventive spray on cucumber seedlings, disease rating; assay type: in vivo, Botrytis cinerea (on cucumber seedlings); details: 200 ppm test suspension sprayed to run-off (equivalent to 500 g/ha) on cucumber seedlings; 100 = 100% disease control, 0 = no control; # = significant activity
From the text: as §1
as §3, with “cucumber” for “wheat”, “Botrytis cinerea” for “Puccinia recondita”, “gray mold on many crops)” for “wheat leaf rust)”, “48” for “24”, “and” for “and then”, “5” for “6”
as §2

[2] = 200 ppm test suspension sprayed to run-off (equivalent to 500 g/ha) on rice seedlings
[3] = Tested at 40 ppm, rice seedlings

Row | Compound | Test A disease control rating (wheat powdery mildew) [1] | Test B disease control rating (wheat leaf rust) (Puccinia recondita) | Test C disease control rating (rice blast) (Pyricularia oryzae; [2]) | Test D disease control rating (potato and tomato late blight) (Phytophthora infestans) | Test E disease control rating (gray mold) (Botrytis cinerea) | Test C disease control rating (rice blast) (Pyricularia oryzae; [3])
1 | CC(COc1cc(F)ccc1F)NC(=O)C1(C(F)(F)F)CC(C)(Cl)C1 (stereo not drawn) [compound 27] | 72% | 0 (a rating of 0 indicates no disease control (relative to the controls)) | 99# % | 14% | 0 (a rating of 0 indicates no disease control (relative to the controls)) | –
2 | CC(COc1cc(F)ccc1F)NC(=O)C1(C)CC(C)(Cl)C1 (stereo not drawn) [compound 29] | 0 (a rating of 0 indicates no disease control (relative to the controls)) | 86# % | 100# (a rating of 100 indicates 100% disease control) | 0 (a rating of 0 indicates no disease control (relative to the controls)) | 0 (a rating of 0 indicates no disease control (relative to the controls)) | –
3 | CC(NC(=O)C1(Cl)CC(C)(Cl)C1)c1ccc(Br)cc1 (stereo not drawn) [compound 16] | – | – | – | – | – | 98#* %
4 | CC(NC(=O)C1(C(F)(F)F)CC(C)(Cl)C1)c1ccc(Cl)cc1 (stereo not drawn) [compound 6] | – | – | 98# % | – | – | –
5 | CC(COc1cc(Cl)ccc1F)NC(=O)C1(C)CC(C)(Cl)C1 (stereo not drawn) [compound 51] | 83# % | 0 (a rating of 0 indicates no disease control (relative to the controls)) | 100# (a rating of 100 indicates 100% disease control) | 0 (a rating of 0 indicates no disease control (relative to the controls)) | 0 (a rating of 0 indicates no disease control (relative to the controls)) | –
6 | CC(NC(=O)C1CC(C)(Cl)C1)c1ccc(Br)cc1 (stereo not drawn) [compound 10] | 74% | 0 (a rating of 0 indicates no disease control (relative to the controls)) | 53% | 42% | 0 (a rating of 0 indicates no disease control (relative to the controls)) | –
7 | CC(COc1ccc(F)cc1C#N)NC(=O)C1(C)CC(C)(Cl)C1 (stereo not drawn) [compound 39] | 0 (a rating of 0 indicates no disease control (relative to the controls)) | 25% | 97# % | 45% | 47% | –
8 | CC(COc1ccccc1F)NC(=O)C1(C(F)(F)F)CC(C)(Cl)C1 (stereo not drawn) [compound 25] | – | – | 97# % | – | – | –
9 | CC(NC(=O)C1(C(F)(F)F)CC(C)(Cl)C1)c1ccc(Cl)cc1 (stereo not drawn) [Compound 7] | – | – | 100# (a rating of 100 indicates 100% disease control) | – | – | –
10 | CC(COc1ccccc1F)NC(=O)C1(C(F)(F)F)CC(C)(Cl)C1 (stereo not drawn) [compound 26] | – | – | 100# (a rating of 100 indicates 100% disease control) | – | – | –
11 | CC(NC(=O)C1(C(F)(F)F)CC(C)(Cl)C1)c1ccc(Br)cc1 (stereo not drawn) [compound 4] | – | – | 100# (a rating of 100 indicates 100% disease control) | – | – | –
12 | CC(CCc1ccccc1)NC(=O)C1(C(F)(F)F)CC(C)(Cl)C1 (mixture of isomers) [compound 2] | – | – | 64# % | – | – | –
13 | CC(NC(=O)C1(Cl)CC(C)(Cl)C1)c1ccc(Br)cc1 (stereo not drawn) [compound 15] | – | – | – | – | – | 94#* %
14 | CC(NC(=O)C1(C(F)(F)F)CC(C)(Cl)C1)c1ccc(Br)cc1 (mixture of isomers) [compound 1] | – | – | 100# (a rating of 100 indicates 100% disease control) | – | – | –
15 | (R)-N-[1-(4-bromophenyl)ethyl]-3,3-difluoro-1-methylcyclobutanecarboxamide [Example 3] | – | – | 82# % | – | – | –
16 | CC(NC(=O)C1(C(F)(F)F)CC(C)(Cl)C1)c1ccc(Br)cc1 (stereo not drawn) [compound 5] | – | – | 100# (a rating of 100 indicates 100% disease control) | – | – | –
